Data published in PubChem BioAssay AID248 (DTP/NCI, 2004).
Where “and” joins values, the source holds several entries; their conditions need not be identical. Equal values may be shown once. Toxic doses and inconclusive results are not listed. No stated cut-off is given here; in the data, active means T/C of 150% or more; inactive means T/C below 125%.

System: L1210 leukemia ip in BDF1 mice, survival T/C
Experiment: NCI In Vivo Anticancer Drug Screen. Data for tumor model L1210 Leukemia (intraperitoneal) in B6D2F1 (BDF1) mice
Details: endpoint: mean survival time, higher = longer survival
In short: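 Tumor cells were implanted, animals were treated, and survival was followed. The result divides the treated measurement by the vehicle-control measurement.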

[1] = dose: 100.0 mg/kg/injection, schedule: Q01DX009 (ip), vehicle: saline
[2] = dose: 100.0 mg/kg/injection, schedule: Q04DX003 (ip), vehicle: saline
[3] = dose: 200.0 mg/kg/injection, schedule: Q01DX009 (ip), vehicle: saline
[4] = dose: 200.0 mg/kg/injection, schedule: Q04DX003 (ip), vehicle: saline
[5] = dose: 400.0 mg/kg/injection, schedule: Q04DX003 (ip), vehicle: saline
[6] = dose: 100.0 mg/kg/injection, schedule: Q01DX001 (ip), vehicle: saline
[7] = dose: 200.0 mg/kg/injection, schedule: Q01DX001 (ip), vehicle: saline
[8] = dose: 400.0 mg/kg/injection, schedule: Q01DX001 (ip), vehicle: saline
[9] = dose: 100.0 mg/kg/injection, schedule: Q04DX002 (ip), vehicle: saline with Tween-80
[10] = dose: 100.0 mg/kg/injection, schedule: Q04DX002 (ip), vehicle: Klucel (hydroxypropylcellulose) (HPC)
[11] = dose: 200.0 mg/kg/injection, schedule: Q04DX002 (ip), vehicle: Klucel (hydroxypropylcellulose) (HPC)
[12] = dose: 400.0 mg/kg/injection, schedule: Q04DX002 (ip), vehicle: Klucel (hydroxypropylcellulose) (HPC)
[13] = dose: 100.0 mg/kg/injection, schedule: Q01DX001 (ip), vehicle: carboxymethylcellulose (CMC)
[14] = dose: 200.0 mg/kg/injection, schedule: Q01DX001 (ip), vehicle: carboxymethylcellulose (CMC)
[15] = dose: 400.0 mg/kg/injection, schedule: Q01DX001 (ip), vehicle: carboxymethylcellulose (CMC)
[16] = dose: 100.0 mg/kg/injection, schedule: Q04DX003 (ip), vehicle: saline with Tween-80
[17] = dose: 200.0 mg/kg/injection, schedule: Q04DX003 (ip), vehicle: saline with Tween-80
[18] = dose: 400.0 mg/kg/injection, schedule: Q04DX003 (ip), vehicle: saline with Tween-80
[19] = dose: 200.0 mg/kg/injection, schedule: Q04DX002 (ip), vehicle: saline
[20] = dose: 400.0 mg/kg/injection, schedule: Q04DX002 (ip), vehicle: saline
[21] = dose: 50.0 mg/kg/injection, schedule: Q01DX001 (ip), vehicle: saline
[22] = dose: 400.0 mg/kg/injection, schedule: Q01DX009 (ip), vehicle: saline
[23] = dose: 100.0 mg/kg/injection, schedule: Q01DX009 (ip), vehicle: Klucel (hydroxypropylcellulose) (HPC)
[24] = dose: 200.0 mg/kg/injection, schedule: Q01DX009 (ip), vehicle: Klucel (hydroxypropylcellulose) (HPC)
[25] = dose: 400.0 mg/kg/injection, schedule: Q01DX009 (ip), vehicle: Klucel (hydroxypropylcellulose) (HPC)

Measured: T/C

Nc1nc2c(c(-c3ccc(Cl)cc3)n1)CN(c1ccc(Br)cc1)C2=O
inactive: dose: 50.0 mg/kg/injection, schedule: Q01DX009 (ip), vehicle: saline 95 % of control | [1] 108 % of control | [2] 97 % of control | [3] 92 % of control | [4] 100 % of control | [5] 92 % of control

CC1(C)OC2/C(=N/O)C3COC(O3)C2O1 (stereo not given)
inactive: [6] 101 % of control | [7] 95 % of control | [8] 106 % of control

O=C(C1CC1c1ccccc1)N1CCC(O)(c2ccccc2)CC1 (stereo not given)
inactive: [9] 103 % of control | dose: 200.0 mg/kg/injection, schedule: Q04DX002 (ip), vehicle: saline with Tween-80 100 % of control | dose: 400.0 mg/kg/injection, schedule: Q04DX002 (ip), vehicle: saline with Tween-80 97 % of control

CCOC(=O)OC1C(OC)OC2COC(c3ccccc3)OC2C1O (stereo not given)
inactive: [10] 91 % of control | [11] 91 % of control | [12] 107 % of control

COc1ccc(C(C)S(=O)(=O)c2ccc(C)cc2)cc1OC (stereo not given)
inactive: [13] 97 % of control | [14] 97 % of control | [15] 94 % of control

CCCCCCCCC1OC1CCCCCCCC(=O)N1CCN(C)CC1 (stereo not given)
inactive: dose: 75.0 mg/kg/injection, schedule: Q01DX001 (ip), vehicle: carboxymethylcellulose (CMC) 92 % of control | dose: 150.0 mg/kg/injection, schedule: Q01DX001 (ip), vehicle: carboxymethylcellulose (CMC) 97 % of control | dose: 300.0 mg/kg/injection, schedule: Q01DX001 (ip), vehicle: carboxymethylcellulose (CMC) 91 % of control

O=C(O)CSCc1cc(=O)[nH]c(=O)[nH]1
inactive: [2] 96 % of control | [4] 96 % of control | [5] 98 % of control

Cc1ccccc1C(C)C
inactive: [16] 94 % of control | [17] 98 % of control | [18] 91 % of control

CCCSCCN=C(N)C(N)=NCCSCCC
inactive: dose: 25.0 mg/kg/injection, schedule: Q04DX002 (ip), vehicle: saline with Tween-80 88 % of control | dose: 50.0 mg/kg/injection, schedule: Q04DX002 (ip), vehicle: saline with Tween-80 95 % of control | [9] 97 % of control and 101 % of control

CCOC(COC(=O)c1ccccc1C(=O)O)c1ccccc1 (stereo not given)
inactive: [16] 94 % of control | [17] 97 % of control | [18] 92 % of control

C/C(=N/OC(=O)N(C)C)c1ccc(Cl)cc1Cl
inactive: dose: 100.0 mg/kg/injection, schedule: Q01DX001 (ip), vehicle: other 107 % of control

C[S+](C)CCS(=O)(=O)[O-]
inactive: dose: 100.0 mg/kg/injection, schedule: Q04DX002 (ip), vehicle: saline 99 % of control | [19] 96 % of control | [20] 96 % of control

Ic1c2ccccc2cc2ccccc12
inactive: dose: 50.0 mg/kg/injection, schedule: Q04DX002 (ip), vehicle: Klucel (hydroxypropylcellulose) (HPC) 95 % of control and 123 % of control | [10] 103 % of control and 86 % of control | [11] 108 % of control and 92 % of control | [12] 92 % of control

CCCOB(OCCC)OCCC
inactive: [21] 95 % of control | [6] 98 % of control | [7] 98 % of control | [8] 106 % of control

CC(C)c1cc(C(C)C)n2nc(N)nc2n1
inactive: dose: 100.0 mg/kg/injection, schedule: Q01DX009 (ip), vehicle: saline with Tween-80 96 % of control | dose: 200.0 mg/kg/injection, schedule: Q01DX009 (ip), vehicle: saline with Tween-80 102 % of control | dose: 400.0 mg/kg/injection, schedule: Q01DX009 (ip), vehicle: saline with Tween-80 105 % of control

Cc1ccc(C(=O)N/N=C/c2ccc(Cl)cc2Cl)cc1
inactive: [10] 100 % of control | [11] 95 % of control | [12] 95 % of control

O=c1c(O)c(-c2ccccc2)oc2ccccc12
inactive: [13] 90 % of control | [14] 97 % of control | [15] 97 % of control

CC1CCCC(C)(CO)O1 (stereo not given)
inactive: [1] 93 % of control | [2] 97 % of control | [3] 101 % of control | [4] 97 % of control | [22] 109 % of control | [5] 97 % of control

Cc1ccc(N=Cc2cc(Cl)cc(Cl)c2OC(=O)c2ccccc2)cc1Cl
inactive: [10] 94 % of control | [11] 111 % of control | [12] 97 % of control

CC(=O)OCCc1ccc2c(c1)OCO2
inactive: [10] 97 % of control | [11] 112 % of control | [12] 115 % of control

Cc1ccc(S(=O)(=O)/N=S(/C)CC/S(C)=N/S(=O)(=O)c2ccc(C)cc2)cc1 (stereo not given)
inactive: [23] 102 % of control | [24] 105 % of control | [25] 100 % of control

CCCCCCCCCC(=O)N(CC)CC
inactive: [19] 111 % of control | [20] 92 % of control

COc1cccc(C2Nc3cc(Cl)ccc3S2)c1O (stereo not given)
inactive: dose: 75.0 mg/kg/injection, schedule: Q01DX001 (ip), vehicle: saline 105 % of control | dose: 150.0 mg/kg/injection, schedule: Q01DX001 (ip), vehicle: saline 109 % of control | dose: 300.0 mg/kg/injection, schedule: Q01DX001 (ip), vehicle: saline 105 % of control

c1ccc2nc(C3CO3)cnc2c1 (stereo not given)
inactive: [16] 100 % of control | [17] 91 % of control | [18] 99 % of control

CCOC(=N)N1C(N)=NC(=O)C1c1ccccc1 (stereo not given)
inactive: [1] 105 % of control | [2] 110 % of control | [3] 110 % of control | [4] 103 % of control | [22] 96 % of control | [5] 105 % of control

CC(=O)c1cc(S(=O)(=O)c2cc(C(C)=O)c(O)cc2OCc2ccccc2)c(OCc2ccccc2)cc1O
inactive: dose: 100.0 mg/kg/injection, schedule: Q04DX002 (ip), vehicle: carboxymethylcellulose (CMC) 103 % of control | dose: 200.0 mg/kg/injection, schedule: Q04DX002 (ip), vehicle: carboxymethylcellulose (CMC) 92 % of control | dose: 400.0 mg/kg/injection, schedule: Q04DX002 (ip), vehicle: carboxymethylcellulose (CMC) 88 % of control

O=C(Nc1cccc([N+](=O)[O-])c1)Nc1ccc(F)c([N+](=O)[O-])c1
inactive: [23] 102 % of control | [24] 101 % of control | [25] 98 % of control

C/C(=N/N(CCCCN(/N=C(/C)c1ccccc1)c1ccccc1)c1ccccc1)c1ccccc1
inactive: [21] 97 % of control | [6] 95 % of control | [7] 92 % of control | [8] 92 % of control

O=C(O)CC(CC(=O)O)n1cccc1
inactive: dose: 75.0 mg/kg/injection, schedule: Q01DX001 (ip), vehicle: acetone 96 % of control | dose: 150.0 mg/kg/injection, schedule: Q01DX001 (ip), vehicle: acetone 91 % of control | dose: 300.0 mg/kg/injection, schedule: Q01DX001 (ip), vehicle: acetone 94 % of control

Cc1ccc(N2C(=O)C3C(C2=O)C2(Cl)C(Cl)=C(Cl)C3(Cl)C2(Cl)Cl)cc1Cl (stereo not given)
inactive: [23] 94 % of control | [24] 87 % of control | [25] 92 % of control

O=C1OCC2CC3c4ccccc4C12c1ccccc13 (stereo not given)
inactive: dose: 100.0 mg/kg/injection, schedule: Q01DX001 (ip), vehicle: Klucel (hydroxypropylcellulose) (HPC) 100 % of control | dose: 100.0 mg/kg/injection, schedule: Q04DX003 (ip), vehicle: Klucel (hydroxypropylcellulose) (HPC) 98 % of control | dose: 200.0 mg/kg/injection, schedule: Q01DX001 (ip), vehicle: Klucel (hydroxypropylcellulose) (HPC) 92 % of control | dose: 200.0 mg/kg/injection, schedule: Q04DX003 (ip), vehicle: Klucel (hydroxypropylcellulose) (HPC) 93 % of control | dose: 400.0 mg/kg/injection, schedule: Q01DX001 (ip), vehicle: Klucel (hydroxypropylcellulose) (HPC) 105 % of control | dose: 400.0 mg/kg/injection, schedule: Q04DX003 (ip), vehicle: Klucel (hydroxypropylcellulose) (HPC) 97 % of control

CSc1ccc(P(=NS(=O)(=O)c2ccc(C)cc2)(c2ccc(SC)cc2)c2ccc(SC)cc2)cc1
inactive: [23] 104 % of control | [24] 98 % of control

O=C1C(Br)=C(Br)C(=O)C1(Br)Br
inactive: [16] 87 % of control | [17] 96 % of control | [18] 94 % of control
